Measured values taken from the kinase profiling compilation of Christmann-Franck et al. (2016).

How the values were obtained:
Test in all cases: KINOMEscan competition binding
Conditions in all cases: compound 10.0 µM
[1] = molecular target: CDK2 (human) (UniProt P24941)
[2] = molecular target: LYN (human) (UniProt P07948)
[3] = molecular target: DAPK2 (human) (UniProt Q9UIK4)
[4] = molecular target: DAPK3 (human) (UniProt O43293)
[5] = molecular target: TEK (human) (UniProt Q02763)
[6] = molecular target: CLK4 (human) (UniProt Q9HAZ1)
[7] = molecular target: CLK1 (human) (UniProt P49759)
[8] = molecular target: MELK (human) (UniProt Q14680)
[9] = tested on: EIF2AK4 KD2 (human), Q9P2K8 [S808G]
[10] = molecular target: ULK3 (human) (UniProt Q6PHR2)
[11] = molecular target: RPS6KA1 KD1 (human) (UniProt Q15418)
[12] = molecular target: AAK1 (human) (UniProt Q2M2I8)
[13] = molecular target: STK16 (human) (UniProt O75716)
Chain of STK16 (human) (O75716 whole entry, looked up): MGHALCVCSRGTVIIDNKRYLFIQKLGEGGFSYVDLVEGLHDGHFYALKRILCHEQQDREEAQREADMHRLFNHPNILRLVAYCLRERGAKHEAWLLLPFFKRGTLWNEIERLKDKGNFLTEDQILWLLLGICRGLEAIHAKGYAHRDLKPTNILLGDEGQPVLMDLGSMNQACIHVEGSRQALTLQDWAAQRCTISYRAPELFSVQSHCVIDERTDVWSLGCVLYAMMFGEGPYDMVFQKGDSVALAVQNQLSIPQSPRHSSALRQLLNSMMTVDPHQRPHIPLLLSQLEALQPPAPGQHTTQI

[14] = molecular target: MAP2K4 (human) (UniProt P45985)
[15] = molecular target: CSNK2A2 (human) (UniProt P19784)
[16] = tested on: EGFR (human), P00533 [G719C; 746-750 del]
[17] = molecular target: EPHA7 (human) (UniProt Q15375)
[18] = tested on: KIT (human), P10721 [V559D/V654A]
Chain of KIT (human), P10721 [V559D/V654A] (P10721 whole entry V559D/V654A, looked up): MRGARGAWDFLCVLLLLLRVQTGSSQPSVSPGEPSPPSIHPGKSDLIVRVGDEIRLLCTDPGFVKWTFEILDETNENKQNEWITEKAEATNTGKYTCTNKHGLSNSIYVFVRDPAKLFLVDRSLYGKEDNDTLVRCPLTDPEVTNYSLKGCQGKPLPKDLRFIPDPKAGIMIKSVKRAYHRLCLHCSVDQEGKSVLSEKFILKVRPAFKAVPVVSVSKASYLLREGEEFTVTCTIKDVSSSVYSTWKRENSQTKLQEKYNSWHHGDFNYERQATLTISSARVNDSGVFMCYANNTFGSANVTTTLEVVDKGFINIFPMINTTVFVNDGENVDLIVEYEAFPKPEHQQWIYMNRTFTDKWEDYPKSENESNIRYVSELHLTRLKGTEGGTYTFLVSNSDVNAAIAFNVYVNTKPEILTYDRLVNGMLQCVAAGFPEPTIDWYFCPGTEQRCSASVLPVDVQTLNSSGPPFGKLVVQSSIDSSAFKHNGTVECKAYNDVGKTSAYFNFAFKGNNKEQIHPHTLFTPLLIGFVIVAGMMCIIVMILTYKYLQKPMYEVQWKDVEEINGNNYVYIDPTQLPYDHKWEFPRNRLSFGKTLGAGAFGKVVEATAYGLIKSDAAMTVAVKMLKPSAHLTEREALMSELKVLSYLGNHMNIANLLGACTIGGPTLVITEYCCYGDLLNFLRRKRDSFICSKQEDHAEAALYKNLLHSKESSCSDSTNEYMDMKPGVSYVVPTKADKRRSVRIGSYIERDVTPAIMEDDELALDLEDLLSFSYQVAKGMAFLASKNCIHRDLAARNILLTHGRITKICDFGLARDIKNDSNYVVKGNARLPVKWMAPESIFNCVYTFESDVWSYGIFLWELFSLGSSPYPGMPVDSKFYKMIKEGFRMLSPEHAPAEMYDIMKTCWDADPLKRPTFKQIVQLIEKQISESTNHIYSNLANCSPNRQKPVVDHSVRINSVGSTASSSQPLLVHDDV

[19] = molecular target: TLK1 (human) (UniProt Q9UKI8)
[20] = molecular target: SIK2 (human) (UniProt Q9H0K1)
[21] = molecular target: TNIK (human) (UniProt Q9UKE5)
[22] = tested on: EGFR (human), P00533 [747-751 del / S ins]
[23] = molecular target: CDK16 (human) (UniProt Q00536)
[24] = molecular target: CAMK1D (human) (UniProt Q8IU85)
[25] = molecular target: TEC (human) (UniProt P42680)
[26] = molecular target: NLK (human) (UniProt Q9UBE8)
[27] = molecular target: SGK110 (human) (UniProt P0C264)
Chain of SGK110 (human) (P0C264 whole entry, looked up): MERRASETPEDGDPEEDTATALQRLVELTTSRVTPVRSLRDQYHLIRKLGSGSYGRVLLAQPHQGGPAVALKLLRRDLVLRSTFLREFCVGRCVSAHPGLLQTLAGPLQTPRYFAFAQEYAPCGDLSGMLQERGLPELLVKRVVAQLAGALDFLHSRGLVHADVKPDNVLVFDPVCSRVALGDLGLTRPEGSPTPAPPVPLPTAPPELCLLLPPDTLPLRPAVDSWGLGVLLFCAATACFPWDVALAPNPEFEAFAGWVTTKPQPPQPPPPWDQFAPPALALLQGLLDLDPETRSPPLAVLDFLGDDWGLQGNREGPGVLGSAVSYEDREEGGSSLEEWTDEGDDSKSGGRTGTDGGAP

[28] = tested on: PIK3CA (human), P42336 [E545K]
[29] = molecular target: PRKCQ (human) (UniProt Q04759)
[30] = molecular target: TAOK1 (human) (UniProt Q7L7X3)
[31] = molecular target: PIM3 (human) (UniProt Q86V86)
[32] = molecular target: DYRK1B (human) (UniProt Q9Y463)
[33] = molecular target: RAF1 (human) (UniProt P04049)
[34] = molecular target: DCLK2 (human) (UniProt Q8N568)
[35] = molecular target: LATS2 (human) (UniProt Q9NRM7)
[36] = molecular target: CDK18 (human) (UniProt Q07002)
[37] = molecular target: MET (human) (UniProt P08581)
[38] = molecular target: CDK14 (human) (UniProt O94921)
[39] = molecular target: ACVR2B (human) (UniProt Q13705)
[40] = molecular target: AKT2 (human) (UniProt P31751)
[41] = molecular target: MAP3K5 (human) (UniProt Q99683)
Chain of MAP3K5 (human) (Q99683 whole entry, looked up): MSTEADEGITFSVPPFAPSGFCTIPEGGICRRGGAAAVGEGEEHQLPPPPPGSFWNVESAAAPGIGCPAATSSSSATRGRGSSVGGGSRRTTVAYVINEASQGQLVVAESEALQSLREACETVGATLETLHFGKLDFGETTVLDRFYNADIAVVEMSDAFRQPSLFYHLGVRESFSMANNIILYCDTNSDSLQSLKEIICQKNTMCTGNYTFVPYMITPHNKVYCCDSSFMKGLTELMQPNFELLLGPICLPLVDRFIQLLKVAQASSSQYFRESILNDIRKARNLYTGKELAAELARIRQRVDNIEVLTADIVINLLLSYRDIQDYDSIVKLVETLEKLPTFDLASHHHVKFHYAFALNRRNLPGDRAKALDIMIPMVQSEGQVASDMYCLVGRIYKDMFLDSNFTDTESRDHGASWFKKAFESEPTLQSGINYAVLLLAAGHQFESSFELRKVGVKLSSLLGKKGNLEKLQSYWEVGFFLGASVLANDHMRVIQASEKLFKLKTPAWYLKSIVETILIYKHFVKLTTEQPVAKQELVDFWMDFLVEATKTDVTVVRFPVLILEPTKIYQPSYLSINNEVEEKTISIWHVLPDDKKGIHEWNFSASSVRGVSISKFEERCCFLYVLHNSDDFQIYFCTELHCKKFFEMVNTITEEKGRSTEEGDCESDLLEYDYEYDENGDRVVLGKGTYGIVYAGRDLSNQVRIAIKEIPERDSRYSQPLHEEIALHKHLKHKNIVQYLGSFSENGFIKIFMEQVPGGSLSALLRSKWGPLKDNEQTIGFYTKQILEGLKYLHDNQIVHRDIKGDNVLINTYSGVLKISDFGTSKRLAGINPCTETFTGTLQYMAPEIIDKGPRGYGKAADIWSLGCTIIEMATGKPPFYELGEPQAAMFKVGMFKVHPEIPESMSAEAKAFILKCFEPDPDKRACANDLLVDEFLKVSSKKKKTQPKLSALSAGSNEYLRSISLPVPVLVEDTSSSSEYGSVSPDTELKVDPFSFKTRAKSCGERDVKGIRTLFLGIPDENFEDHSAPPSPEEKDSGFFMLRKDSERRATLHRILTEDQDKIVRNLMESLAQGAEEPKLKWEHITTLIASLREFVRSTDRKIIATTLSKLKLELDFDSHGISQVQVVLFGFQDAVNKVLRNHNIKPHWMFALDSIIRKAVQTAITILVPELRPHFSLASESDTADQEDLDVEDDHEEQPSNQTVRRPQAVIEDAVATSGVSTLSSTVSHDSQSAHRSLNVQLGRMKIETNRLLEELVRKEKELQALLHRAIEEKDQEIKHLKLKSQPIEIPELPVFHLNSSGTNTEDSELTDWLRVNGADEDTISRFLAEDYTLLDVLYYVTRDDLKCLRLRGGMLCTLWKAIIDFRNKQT

[42] = molecular target: PRKCH (human) (UniProt P24723)

Chain of DAPK2 (human) (Q9UIK4 whole entry, looked up): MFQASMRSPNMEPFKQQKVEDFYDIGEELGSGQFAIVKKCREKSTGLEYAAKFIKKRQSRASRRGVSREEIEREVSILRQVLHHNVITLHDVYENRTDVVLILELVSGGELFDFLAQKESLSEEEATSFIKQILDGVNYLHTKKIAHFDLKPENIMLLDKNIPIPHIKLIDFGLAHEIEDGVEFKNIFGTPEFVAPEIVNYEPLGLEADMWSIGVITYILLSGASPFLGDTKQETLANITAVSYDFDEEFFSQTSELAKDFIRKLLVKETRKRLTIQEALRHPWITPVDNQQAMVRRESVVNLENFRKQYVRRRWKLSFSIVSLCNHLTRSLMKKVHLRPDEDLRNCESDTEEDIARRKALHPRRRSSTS
Chain of TEK (human) (Q02763 whole entry, looked up): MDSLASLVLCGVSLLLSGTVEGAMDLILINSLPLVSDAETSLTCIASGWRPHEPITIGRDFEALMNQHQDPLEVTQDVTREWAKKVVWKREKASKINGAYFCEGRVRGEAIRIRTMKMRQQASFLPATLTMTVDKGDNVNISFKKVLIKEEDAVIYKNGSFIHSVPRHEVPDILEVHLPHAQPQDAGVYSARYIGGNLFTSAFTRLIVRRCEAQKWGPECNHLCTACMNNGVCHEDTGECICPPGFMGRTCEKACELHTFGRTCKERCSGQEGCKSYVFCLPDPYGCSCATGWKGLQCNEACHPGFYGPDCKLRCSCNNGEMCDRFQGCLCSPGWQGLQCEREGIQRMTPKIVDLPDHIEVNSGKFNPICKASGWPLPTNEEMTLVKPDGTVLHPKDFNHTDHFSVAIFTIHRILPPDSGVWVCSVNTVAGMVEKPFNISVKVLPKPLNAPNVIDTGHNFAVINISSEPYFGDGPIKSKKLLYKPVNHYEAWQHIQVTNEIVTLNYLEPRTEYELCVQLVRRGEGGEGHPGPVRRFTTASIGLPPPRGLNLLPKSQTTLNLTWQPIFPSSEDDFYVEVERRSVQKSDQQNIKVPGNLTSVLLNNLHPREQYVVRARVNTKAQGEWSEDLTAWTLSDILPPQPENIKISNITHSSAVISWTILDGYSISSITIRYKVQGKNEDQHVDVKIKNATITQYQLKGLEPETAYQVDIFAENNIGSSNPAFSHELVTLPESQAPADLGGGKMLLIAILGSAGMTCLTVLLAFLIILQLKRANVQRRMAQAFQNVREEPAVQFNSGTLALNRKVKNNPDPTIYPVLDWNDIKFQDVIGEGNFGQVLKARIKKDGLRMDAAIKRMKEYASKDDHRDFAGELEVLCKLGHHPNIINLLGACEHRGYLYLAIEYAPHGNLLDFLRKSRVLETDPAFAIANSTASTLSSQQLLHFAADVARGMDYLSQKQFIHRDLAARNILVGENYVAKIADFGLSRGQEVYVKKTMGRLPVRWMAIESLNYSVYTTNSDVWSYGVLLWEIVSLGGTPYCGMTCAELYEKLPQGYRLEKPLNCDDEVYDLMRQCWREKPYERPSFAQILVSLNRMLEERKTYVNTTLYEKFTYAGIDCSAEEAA

In the case of `COc1cc(N2CCN(C)CC2)ccc1Nc1ncc2c(n1)N(C)c1sccc1C(=O)N2C`, the kinase still bound, per cent of control [1] is reported as 92%, the kinase still bound, per cent of control [2] is reported as 100% and the kinase still bound, per cent of control [3] is reported as 50%. The kinase still bound, per cent of control [4] was 42%, the kinase still bound, per cent of control [5] was 88% and the kinase still bound, per cent of control [6] was 66%. For the same compound, the kinase still bound, per cent of control [7] was 56%, the kinase still bound, per cent of control [8] was 70% and the kinase still bound, per cent of control [9] was 82%. The kinase still bound, per cent of control [10] was 100%, the kinase still bound, per cent of control [11] was 92% and the kinase still bound, per cent of control [12] was 75%. The kinase still bound, per cent of control [13] was 81%, the kinase still bound, per cent of control [14] was 71% and the kinase still bound, per cent of control [15] was 52%. The kinase still bound, per cent of control [16] was 82%, the kinase still bound, per cent of control [17] was 92% and the kinase still bound, per cent of control [18] was 91%. For the same compound, the kinase still bound, per cent of control [19] was 74%, the kinase still bound, per cent of control [20] was 87% and the kinase still bound, per cent of control [21] was 55%. For the same compound, the kinase still bound, per cent of control [22] was 66%, the kinase still bound, per cent of control [23] was 97% and the kinase still bound, per cent of control [24] was 71%. The kinase still bound, per cent of control [25] was 91%, the kinase still bound, per cent of control [26] was 100% and the kinase still bound, per cent of control [27] was 55%. For the same compound, the kinase still bound, per cent of control [28] was 74%, the kinase still bound, per cent of control [29] was 92% and the kinase still bound, per cent of control [30] was 18%. It also gave a kinase still bound, per cent of control [31] of 62%, a kinase still bound, per cent of control [32] of 63% and a kinase still bound, per cent of control [33] of 94%. It also gave a kinase still bound, per cent of control [34] of 1%, a kinase still bound, per cent of control [35] of 100% and a kinase still bound, per cent of control [36] of 76%. It also gave a kinase still bound, per cent of control [37] of 96%, a kinase still bound, per cent of control [38] of 96% and a kinase still bound, per cent of control [39] of 100%. The kinase still bound, per cent of control [40] was 96%, the kinase still bound, per cent of control [41] was 74% and the kinase still bound, per cent of control [42] was 95%.
